Test results published in PubChem BioAssay (NCI).
Where “and” joins values, the source holds several entries; their conditions need not be identical. Identical values can stand only once.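 Following 48 hours of exposure in 96-well plates, responses at five concentrations were used to interpolate endpoints linearly. GI50 marks 50% less growth. At the TGI there is no net growth.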

Assays:
Assay in all cases: growth of human tumour cells (NCI), 48 h
[1] = system: ACHN renal
[2] = system: EKVX NSCLC
[3] = system: HL-60(TB) leukemia
[4] = system: HOP-92 NSCLC
[5] = system: NCI/ADR-RES ovarian
[6] = system: SF-268 CNS
[7] = system: SK-MEL-2 melanoma
[8] = system: SK-MEL-28 melanoma
[9] = system: T-47D breast
[10] = system: UACC-62 melanoma

Row | SMILES | GI50 [1] | TGI [1] | GI50 [2] [µM] | TGI [2] [µM] | GI50 [3] [µM] | TGI [3] | GI50 [4] [µM] | TGI [4] | GI50 [5] [µM] | TGI [5] | GI50 [6] | TGI [6] [µM] | GI50 [7] [µM] | TGI [7] | GI50 [8] | TGI [8] [µM] | GI50 [9] [µM] | TGI [9] | GI50 [10] [µM] | TGI [10]
1 | CC[n+]1oc(C(=O)c2ccc(Cl)cc2)c(-c2ccccc2)c1-c1ccccc1.[Cl][Fe]([Cl])([Cl])[Cl] | 33.5 µM | 99.3 µM | 30.4 | > 100 | 83.6 | > 100 µM | 27.1 | 62.9 µM | > 100 | > 100 µM | 36.1 µM | > 100 | 30.8 | 85.9 µM | 38 µM | > 100 | 0.462 | 35.1 µM | 63.8 | > 100 µM
2 | CCCCCCCCCCCCCCCCCC1=NC(C)(C)CN1CC(C)O (stereo unspecified) | 7.94 µM | 21.9 µM | 13.7 | 30.1 | 4.82 | 24.8 µM | 3.94 | 17.8 µM | 3.97 | 23.6 µM | 1.94 µM | 4.06 | 15.6 | 31 µM | 17.1 µM | 33.5 | 6.58 | 28 µM | 3.44 | 12.5 µM
3 | Cc1[nH]nc(C(F)(F)F)c1N=NN(C)C | – | 18.9 µM | – | 11.5 | – | 42.9 µM | – | 23.5 µM | – | 23 µM | – | 24.1 | – | 35.5 µM | – | 33 | – | > 100 µM | – | 20.6 µM
4 | CS(=O)(=O)CCNCc1cc(-c2cc3c(Nc4ccc(OCc5cccc(F)c5)c(Cl)c4)ncnc3s2)cs1 | 7.35 µM | > 25 µM | 3.42 | > 25 | 4.18 | > 25 µM | 4.34 | > 25 µM | 11.3 | > 25 µM | 11.3 µM | > 25 | 12.8 | > 25 µM | 12.5 µM | > 25 | 3 | > 23.6 µM | 7.12 | 24.5 µM
5 | COc1cc(OC)c(C(=O)/C=C/c2cc3c(cc2OCc2ccccc2)OC(C)(C)CC3)cc1CC=C(C)C | 5.42 µM | 14.5 µM | 6.73 | 22.6 | 5.43 | 17.1 µM | 3.52 | 19.9 µM | 6.89 | > 25 µM | 4.82 µM | 15.2 | 6.84 | > 25 µM | 4.07 µM | 9.23 | 3.74 | 19.1 µM | 3.8 | 10.5 µM
6 | CC1CCC2(NC1)OC1CC3C4CC=C5CC(O)CCC5(C)C4CCC3(C)C1C2C (stereo unspecified) | 29.8 µM and 11.1 µM | 91.7 µM and 30 µM | – | > 100 | – | 31.5 µM and 29.9 µM | – | 49.5 µM and 46.2 µM | – | 51.3 µM and > 57.1 µM | 39.8 µM and 16.1 µM | > 100 | – | > 100 µM and 45.4 µM | 56.4 µM and 25.6 µM | > 100 | – | 49 µM and 48.9 µM | – | 65.1 µM and 50.4 µM
7 | [C](#Cc1ccccc1)[Hg][C]#Cc1ccccc1 | 21.1 µM | 41.6 µM | > 100 | > 100 | 27.7 | > 100 µM | 21.1 | 47.5 µM | > 100 | > 100 µM | 18.7 µM | 38 | 37.7 | > 100 µM | 14.7 µM | 36.2 | 28.8 | 79.1 µM | 24.3 | 53.7 µM
8 | Cc1nc(-c2ccccc2)n2nc(NCCCN3CCOCC3)ncc12 | 10.4 µM | > 25 µM | > 25 | > 25 | > 25 | > 25 µM | 10.6 | > 25 µM | > 25 | > 25 µM | > 25 µM | > 25 | 10.5 | > 25 µM | > 25 µM | > 25 | > 25 | > 25 µM | > 25 | > 25 µM
9 | COC(=O)c1cc2c3ccccc3n3c(=O)c4cc5ccc(N(S(=O)(=O)c6ccc(C)cc6)S(=O)(=O)c6ccc(C)cc6)cc5nc4c(n1)c23 | 17.2 µM | 82.6 µM | 53.6 | > 100 | > 100 | > 100 µM | 12.4 | 34.3 µM | > 100 | > 100 µM | 39.2 µM | > 100 | 25.9 | > 100 µM | > 100 µM | > 100 | > 100 | > 100 µM | 29.7 | > 100 µM
10 | CCNc1cc(-c2cccc(OC(F)(F)F)c2)nc2ccc(N3CCCC3)cc12 | 2.28 µM | 7.61 µM | 2.49 | 11.1 | 1.97 | 4.27 µM | 1.21 | 3.24 µM | 1.83 | 6.25 µM | 1.79 µM | 3.79 | 1.81 | 3.54 µM | 1.71 µM | 3.74 | 2.11 | 7.06 µM | 1.57 | 3.07 µM
11 | COc1ccc(-c2ccncc2)cc1C(N)=O | > 25 µM | > 25 µM | > 25 | > 25 | > 25 | > 25 µM | > 25 | > 25 µM | > 25 | > 25 µM | > 25 µM | > 25 | > 25 | > 25 µM | > 25 µM | > 25 | > 25 | > 25 µM | > 25 | > 25 µM
12 | C=CCn1c(C)nc2ccc(Nc3nc(Nc4ccc(F)cc4)nc4ccccc34)cc21 | 1.99 µM | 4.31 µM | – | – | 4.95 | 23.3 µM | 0.585 | 6.97 µM | 4.01 | 37.7 µM | 8.69 µM | 27.8 | 3.16 | 11.4 µM | 1.65 µM | 3.13 | 1.7 | 4.23 µM | 1.8 | 3.7 µM
13 | CC[C@H](Nc1ncnc2nc[nH]c12)c1nc2cccc(F)c2c(=O)n1-c1ccccc1 | 10.7 µM | > 100 µM | 41.5 | > 100 | 4.72 | 56.5 µM | 4.86 | > 60.4 µM | 86.8 | > 100 µM | 19.2 µM | > 100 | 48.4 | > 100 µM | 13.7 µM | > 100 | 3.76 | > 100 µM | 3.52 | > 92.4 µM
